Measurements as given in US6750240B2, “Methods of using bis-indolylquinones” (Sugen, Inc., priority 1997, dated 2004).

Key:
[1] = system: human epidermoid carcinoma (A431, ATCC CRL 1555); test: In vivo tumor growth of A431 cells implanted into the hindflank of athymic mice; set-up: species or system Female athymic mice (BALB/c, nu/nu)
Procedure: The following example illustrates the use of the compounds of the invention in an in vivo model of tumor growth.
Female athymic mice (BALB/c, nu/nu) were obtained from Simonsen Laboratories (Gilroy, Calif.). All animals were maintained under clean-room conditions in Micro-isolator cages with Alpha-dri bedding. They received sterile rodent chow and water ad libitum. A cell line established from a human epidermoid carcinoma (A431, ATCC CRL 1555) was grown in DMEM with 10% FBS and 2 mM GLN. All cell culture media, glutamine, and fetal bovine serum were purchased from Gibco Life Technologies (Grand Island, N.Y.) unless otherwise specified. All cells were grown in a humid atmosphere of 90-95% air and 5-10% CO2 at 37° C. All cell lines were routinely subcultured twice a week and were negative for mycoplasma as determined by teh Mycotect method (Gibco). Cells were harvested at or near confluency with 0.05% Trypsin-EDTA and pelleted at 450×g for 10 min. Pellets were resuspended in sterile PBS or media (without FBS) to a particular concentration and the cells were implanted into the hindflank of the mice ([…] mice per group). Tumor growth was measured, over 3 to 6 weeks using venier calipers. Tumor volumes were calculated as a product of length×width×height unless otherwise indicated. P values were calculated using the Students' t-test. Compound 1 (from Example 1 and Table I) in 100 μL excipient (VPD:D5W, 1:1 (VPD−12% w/v polysorbate 80, 0.55% citric acid (anhydrous), 35% w/v polyenthlene glycol (MW=300 daltons) and 26.3% v/v 190 proof ethanol diluted 1:22 in 5% dextrose in water (D5W) was delivered by IP injection at different concentrations. Control animals received VPD:D5W alone. Animals were dosed daily on days 1-5 (high dose), days 1-9 (mid-dose) or throughout the study (low dose).
The results are shown below as a percent tumor reduction compared to controls.

[2] = molecular target: HIV-reverse transcriptase (Human immunodeficiency virus type 1 group M subtype B, UniProt P03366); conditions: cited from earlier work

Row | Structure (SMILES) | % inhibition (percent tumor reduction compared to controls) ([1]; 2.5 mg/kg/day IP (low dose, dosed daily throughout the study), Day 7, A431 tumor) | % inhibition (percent tumor reduction compared to controls) ([1]; 2.5 mg/kg/day IP (low dose, dosed daily throughout the study), Day 18, A431 tumor) | % inhibition (percent tumor reduction compared to controls) ([1]; 5 mg/kg/day IP (mid-dose, days 1-9), Day 7, A431 tumor) | % inhibition (percent tumor reduction compared to controls) ([1]; 5 mg/kg/day IP (mid-dose, days 1-9), Day 18, A431 tumor) | % inhibition (percent tumor reduction compared to controls) ([1]; 7.5 mg/kg/day IP (high dose, days 1-5), Day 7, A431 tumor) | % inhibition (percent tumor reduction compared to controls) ([1]; 7.5 mg/kg/day IP (high dose, days 1-5), Day 18, A431 tumor) | tumor growth inhibition, dose dependence ([1]; IP, 2.5-7.5 mg/kg/day, A431 tumor in athymic mice) | tumor growth after cessation of treatment ([1]; after cessation of treatment with the compound) | inhibition of HIV-reverse transcriptase [2]
1 | CC(C)CCc1[nH]c2ccccc2c1C1=C(O)C(=O)C(c2c(CCC(C)C)[nH]c3ccccc23)=C(O)C1=O [Compound 1, 2,5-Dihydroxy-3,6-di-[2-(3-methyl-n-butyl)indol-3-yl]-1,4-quinone] | 11% | 0% | 30% | 38% | 55% | 50% | inhibited tumor growth in a dose dependent manner | remained inhibited even after cessation of treatment | –
2 | C=CC(C)(C)n1cc(C2=C(O)C(=O)C(c3cn(C(C)(C)C=C)c4ccccc34)=C(O)C2=O)c2ccccc21 [asterriquinone, 2,5-bis[N-(1″,1″-dimethyl-2″-propenyl)indol-3″-yl]-3,6-dihydroxy-1,4-benzoquinone] | – | – | – | – | – | – | – | – | strong inhibitors
